These results are taken from ChEMBL document CHEMBL1143191, “The synthesis and biological evaluation of a range of novel functionalized benzopyrans as potential potassium channel activators” (2008).

Common to all, as to assay type: functional, Thorax
Assay [1] deals with Thoracic. Briefly: Vasorelaxation activity against phenylephrine-stimulated contraction in rat thoracic tissue at 10 uM. Further details: scale not given: the % may be the effect or the level left.
Assay [2] has as its system Thoracic. Kind of assay: Vasorelaxation activity against phenylephrine-stimulated contraction in rat thoracic tissue at 40 uM. On the set-up: scale not given: the % may be the effect or the level left.
Assay [3] deals with Thoracic. Kind of assay: Vasorelaxation activity against phenylephrine-stimulated contraction in rat thoracic tissue assessed as time taken for relaxation at 10 uM.
The test system of assay [4] is Thoracic. Briefly: Vasorelaxation activity against phenylephrine-stimulated contraction in rat thoracic tissue assessed as time taken for relaxation at 40 uM.
The test system of assay [5] is Thoracic. Kind of assay: Vasorelaxation activity against phenylephrine-stimulated contraction in rat thoracic tissue at 20 uM in presence of glibenclamide. Further details: scale not given: the % may be the effect or the level left.
For assay [6], the system named is Thoracic. Briefly: Vasorelaxation activity against phenylephrine-stimulated contraction in rat thoracic tissue at 1 uM. Further details: scale not given: the % may be the effect or the level left.

Structures are written as SMILES.

On to `CC(C)(F)[C@@H]1COc2c(F)cc(F)cc2C1C#Cc1ccccc1` (single isomer, unassigned), for which the Activity in the assay with Thoracic [1] is 20%; in the assay on Thoracic [2], 65%. Also, the Time in the assay on Thoracic [3] is 41 min; with Thoracic [4], 24 min.
With `CC(C)(F)[C@@H]1COc2ccc([N+](=O)[O-])cc2C1C#Cc1ccccc1` (single isomer, unassigned), the Activity was 43% in the assay with Thoracic [1], 88% in the assay on Thoracic [2] and 30% in the assay with Thoracic [5]. The values for the Time in the assay on Thoracic [3] and in the assay on Thoracic [4] were 40 min and 30 min, respectively.
Take `CC1(C)Oc2ccc(C#N)cc2[C@@H](N2CCCC2=O)[C@@H]1O` [CROMAKALIM]: the Activity with Thoracic [6] came out at 56%; in the assay on Thoracic [1], 72%.
As to `CC(C)(F)[C@@H]1COc2c(F)cccc2C1C#Cc1ccccc1` (single isomer, unassigned), the Activity worked out at 28% with Thoracic [1], 92% in the assay on Thoracic [2] and 30% in the assay with Thoracic [5]. Moreover, the Time came to 43 min in the assay with Thoracic [3] and 21 min in the assay on Thoracic [4].
Consider `CC(C)(F)[C@@H]1COc2ccc(F)cc2C1C#Cc1ccccc1` (single isomer, unassigned), for which the Activity in the assay with Thoracic [1] was 36%; in the assay with Thoracic [2], 83%; in the assay with Thoracic [5], 44%. Moreover, the Time amounted to 55 min in the assay with Thoracic [3] and 33 min in the assay on Thoracic [4].
